Experimental data from the NIST ThermoML archive (doi:10.1021/je800110r).

Conditions: 293.15 K, Liquid, Vibrating tube method

CCCCCCCCCC [decane]
Conditions | mass density [kg/m3]
11001 kPa | 738.1
11023 kPa | 738.1
11045 kPa | 738.2
11061 kPa | 738.1
11081 kPa | 738.1
11094 kPa | 738.1
11111 kPa | 738.1
11131 kPa | 738.2
11156 kPa | 738.3
11170 kPa | 738.1
11193 kPa | 738.3
11210 kPa | 738.3
11235 kPa | 738.2
11255 kPa | 738.1
11281 kPa | 738.2
11304 kPa | 738.2
11324 kPa | 738.3
11348 kPa | 738.3
11366 kPa | 738.3
11387 kPa | 738.4
11408 kPa | 738.3
11425 kPa | 738.4
11443 kPa | 738.3
11460 kPa | 738.4
11479 kPa | 738.4
11492 kPa | 738.4
11511 kPa | 738.5
11524 kPa | 738.4
11543 kPa | 738.5
11560 kPa | 738.4
11574 kPa | 738.5
11596 kPa | 738.5
11613 kPa | 738.5
11628 kPa | 738.4
11645 kPa | 738.6
11664 kPa | 738.5
11684 kPa | 738.6
11701 kPa | 738.6
11721 kPa | 738.6
11740 kPa | 738.6
11758 kPa | 738.6
11775 kPa | 738.6
11793 kPa | 738.6
11810 kPa | 738.6
11828 kPa | 738.7
11845 kPa | 738.7
11861 kPa | 738.7
11888 kPa | 738.6
11904 kPa | 738.7
11927 kPa | 738.7
11950 kPa | 738.8
11966 kPa | 738.8
11987 kPa | 738.8
12010 kPa | 738.7
12028 kPa | 738.8
12049 kPa | 738.7
12070 kPa | 738.9
12089 kPa | 738.8
12110 kPa | 738.9
12131 kPa | 738.8
12152 kPa | 738.8
12170 kPa | 738.8
12187 kPa | 739
12201 kPa | 738.9
12219 kPa | 738.9
12238 kPa | 738.9
12263 kPa | 739.2
12285 kPa | 739
12301 kPa | 739
